Tests used:
[1] = Pharmacokinetics in rats; assay type: in vivo; conditions: rat, whole blood, Sprague Dawley rats
Method: Compounds were administered to Sprague Dawley rats intravenously (2 mg/kg) or orally (10 mg/kg) by gavage. Whole blood diluted with water was prepared from these dosed animals over a time course up to 24 hours post dose to allow blood concentrations of drug to be measured by UPLC-MS/MS.

[2] = target: human Z A1AT (Homo sapiens, UniProt P01009, E366K); assay: Trypsin complex formation by human Z A1AT purified from plasma of treated huZ mice (Western blot); assay type: biochemical, huZ mouse; parameters: from tissue; host or cells: huZ (PiZZ) transgenic mice, line Z11.03, C57Bl/6 background; made in liver, measured in plasma; conditions: Z A1AT purified from plasma of huZ mice treated at 200 mg/kg twice a day by oral gavage for 10 days
Method: The aim of the experiment was to purify human Z A1AT from three HuZ mice which had been treated with compound N,N-dimethyl-4-((6-oxopyrimidin-1(6H)-yl)methyl)benzamide (22.1e, 24.1a, 24.1b), then test the activity of the A1AT by reaction with increasing amounts of trypsin. Reaction of A1AT with the trypsin was analysed by western blot, probing with an anti-human A1AT antibody. A control plasma from a wild type mouse treated with the same compound (15.5b) was also included in the study.
Mice were treated with N,N-dimethyl-4-((6-oxopyrimidin-[…]-yl)methyl)benzamide at 200 mg/kg twice a day by oral gavage for 10 consecutive days. Mice had access to food (standard mouse chow, SAFE diets) and water ad libitum. On study day 10, each mouse was dosed 3.5-4.5 hours prior to terminal procedures. […]
100 μl of mouse plasma was diluted to 300 μl with 20 mM Tris, 150 mM NaCl, 5 mM EDTA, pH 7.4 (reaction and wash buffer) prior to purification. […] Residual A1AT in the plasma and plasma supernatant was quantified using a human serpinA1 ELISA (Human Serpin A1/α1-antitrypsin duo set ELISA, R& D Systems, DY1268) to confirm depletion of human A1AT. The concentration of the eluted fractions were also measured. The amount of eluted A1AT was determined by measuring by A280 using an extinction coefficient of 0.45. […]

human Z A1AT, sequence (P01009 25-418 E366K): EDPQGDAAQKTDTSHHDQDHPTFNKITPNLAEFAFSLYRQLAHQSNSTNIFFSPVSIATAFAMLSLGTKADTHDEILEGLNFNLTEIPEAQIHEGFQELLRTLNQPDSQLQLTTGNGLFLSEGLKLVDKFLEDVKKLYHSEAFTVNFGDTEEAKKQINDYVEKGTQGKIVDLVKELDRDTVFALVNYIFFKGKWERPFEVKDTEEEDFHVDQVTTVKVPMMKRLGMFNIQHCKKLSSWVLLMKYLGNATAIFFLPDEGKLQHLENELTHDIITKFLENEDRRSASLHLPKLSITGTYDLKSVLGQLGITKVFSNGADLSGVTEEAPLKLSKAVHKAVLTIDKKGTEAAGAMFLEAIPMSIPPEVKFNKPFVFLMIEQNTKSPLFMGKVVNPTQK

## CN(C)C(=O)c1ccc(Cn2cnccc2=O)cc1 [N,N-dimethyl-4-((6-oxopyrimidin-1(6H)-yl)methyl)benzamide]
[1]; iv 2 mg/kg or oral 10 mg/kg, read-out: Half-life in blood (t1/2)
  half-life: 55 min
[1]; iv 2 mg/kg or oral 10 mg/kg, read-out: Observed clearance
  clearance: 10.6 mL/min/kg
[1]; iv 2 mg/kg or oral 10 mg/kg, read-out: Volume of distribution (Vz)
  Vd: 0.84 L/kg
[1]; oral 10 mg/kg vs iv 2 mg/kg, read-out: Oral Bioavailability (F)
  bioavailability: 104%
[1]; oral 10 mg/kg, blood
  Cmax: 5330 ng/mL
[1]; oral 10 mg/kg, blood, read-out: Oral AUCINF
  AUC(0-inf): 16500 ng·h/mL
[2]
  activity of eluted human Z A1AT (complex formation with trypsin): native and fully active
